Experiments:
Test in all cases: radiometric filter-binding kinase assay, Kinase HotSpot
Conditions in all cases: compound 0.5 µM; ATP 10 µM
TEC (human) = TEC (human) (UniProt P42680)
RPS6KA5 KD2 (human) = RPS6KA5 KD2 (human) (UniProt O75582)
ROCK2 (human) = ROCK2 (human) (UniProt O75116)
INSRR (human) = INSRR (human) (UniProt P14616)
JAK3 JH1 JH2 (human) = JAK3 JH1 JH2 (human) (UniProt P52333)
CAMK2A (human) = CAMK2A (human) (UniProt Q9UQM7)
PASK (human) = PASK (human) (UniProt Q96RG2)
GRK6 (human) = GRK6 (human) (UniProt P43250)
PRKD1 (human) = PRKD1 (human) (UniProt Q15139)
NEK9 (human) = NEK9 (human) (UniProt Q8TD19)
MARK3 (human) = MARK3 (human) (UniProt P27448)
SGK2 (human) = SGK2 (human) (UniProt Q9HBY8)
FGFR1 (human) = FGFR1 (human) (UniProt P11362)
PRKACA (human) = PRKACA (human) (UniProt P17612)
MAPK14 (human) = MAPK14 (human) (UniProt Q16539)
WNK3 (human) = WNK3 (human) (UniProt Q9BYP7)
CAMK2G (human) = CAMK2G (human) (UniProt Q13555)
CSNK1D (human) = CSNK1D (human) (UniProt P48730)
MLTK (human) = MLTK (human) (UniProt Q9NYL2)
CSF1R (human) = CSF1R (human) (UniProt P07333)
MAPK10 (human) = MAPK10 (human) (UniProt P53779)
RPS6KA6 KD1 KD2 (human) = RPS6KA6 KD1 KD2 (human) (UniProt Q9UK32)
DYRK4 (human) = DYRK4 (human) (UniProt Q9NR20)
PRKCA (human) = PRKCA (human) (UniProt P17252)
HIPK1 (human) = HIPK1 (human) (UniProt Q86Z02)
STK11 (human) = STK11 (human) (UniProt Q15831)
PDPK1 (human) = PDPK1 (human) (UniProt O15530)
MAP3K14 (human) = MAP3K14 (human) (UniProt Q99558)
NEK3 (human) = NEK3 (human) (UniProt P51956)
PTK2B (human) = PTK2B (human) (UniProt Q14289)
ULK1 (human) = ULK1 (human) (UniProt O75385)
SGK3 (human) = SGK3 (human) (UniProt Q96BR1)
KDR (human) = KDR (human) (UniProt P35968)
NEK11 (human) = NEK11 (human) (UniProt Q8NG66)
MYLK (human) = MYLK (human) (UniProt Q15746)
CDK6 CCND3 (human) = CDK6 CCND3 (human) (UniProt P30281+Q00534)
MAP3K2 (human) = MAP3K2 (human) (UniProt Q9Y2U5)
CDK2 CCNE1 (human) = CDK2 CCNE1 (human) (UniProt P24941+P24864)
EPHA5 (human) = EPHA5 (human) (UniProt P54756)
STK16 (human) = STK16 (human) (UniProt O75716)
MAPK11 (human) = MAPK11 (human) (UniProt Q15759)
PIM1 (human) = PIM1 (human) (UniProt P11309)

Chain of MAPK11 (human) (Q15759 whole entry, looked up): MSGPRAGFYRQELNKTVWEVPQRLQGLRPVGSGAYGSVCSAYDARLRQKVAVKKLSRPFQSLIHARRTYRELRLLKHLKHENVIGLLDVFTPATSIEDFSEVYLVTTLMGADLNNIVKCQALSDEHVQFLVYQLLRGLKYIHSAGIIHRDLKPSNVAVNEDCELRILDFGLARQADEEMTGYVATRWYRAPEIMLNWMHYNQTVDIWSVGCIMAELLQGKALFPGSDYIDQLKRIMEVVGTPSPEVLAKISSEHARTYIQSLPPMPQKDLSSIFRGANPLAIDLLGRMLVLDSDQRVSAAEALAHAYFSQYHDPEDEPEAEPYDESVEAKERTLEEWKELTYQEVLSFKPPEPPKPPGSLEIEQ
Chain of PRKD1 (human) (Q15139 whole entry, looked up): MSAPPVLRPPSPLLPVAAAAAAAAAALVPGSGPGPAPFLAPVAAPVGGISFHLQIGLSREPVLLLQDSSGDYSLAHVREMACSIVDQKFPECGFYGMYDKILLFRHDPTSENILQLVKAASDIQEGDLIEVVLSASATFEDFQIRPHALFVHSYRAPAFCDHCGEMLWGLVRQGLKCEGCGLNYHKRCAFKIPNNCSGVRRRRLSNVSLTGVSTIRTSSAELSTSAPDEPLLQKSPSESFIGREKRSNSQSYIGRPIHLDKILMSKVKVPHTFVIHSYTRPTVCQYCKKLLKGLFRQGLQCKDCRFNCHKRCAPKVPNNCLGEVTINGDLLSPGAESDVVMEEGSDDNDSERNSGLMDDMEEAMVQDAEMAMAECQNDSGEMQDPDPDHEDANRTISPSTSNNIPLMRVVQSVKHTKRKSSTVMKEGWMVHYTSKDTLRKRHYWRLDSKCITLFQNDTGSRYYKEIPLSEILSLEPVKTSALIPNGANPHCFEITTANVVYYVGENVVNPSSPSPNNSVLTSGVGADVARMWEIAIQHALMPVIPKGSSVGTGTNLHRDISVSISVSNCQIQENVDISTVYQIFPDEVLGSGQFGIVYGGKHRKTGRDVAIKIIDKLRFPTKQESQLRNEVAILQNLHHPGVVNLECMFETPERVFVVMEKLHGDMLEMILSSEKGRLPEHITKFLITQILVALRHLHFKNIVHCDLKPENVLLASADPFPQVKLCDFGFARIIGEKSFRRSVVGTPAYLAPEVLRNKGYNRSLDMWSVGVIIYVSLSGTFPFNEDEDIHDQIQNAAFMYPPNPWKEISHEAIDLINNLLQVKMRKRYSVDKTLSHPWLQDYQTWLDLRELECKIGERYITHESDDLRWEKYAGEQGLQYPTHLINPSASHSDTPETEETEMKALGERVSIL
Chain of STK16 (human) (O75716 whole entry, looked up): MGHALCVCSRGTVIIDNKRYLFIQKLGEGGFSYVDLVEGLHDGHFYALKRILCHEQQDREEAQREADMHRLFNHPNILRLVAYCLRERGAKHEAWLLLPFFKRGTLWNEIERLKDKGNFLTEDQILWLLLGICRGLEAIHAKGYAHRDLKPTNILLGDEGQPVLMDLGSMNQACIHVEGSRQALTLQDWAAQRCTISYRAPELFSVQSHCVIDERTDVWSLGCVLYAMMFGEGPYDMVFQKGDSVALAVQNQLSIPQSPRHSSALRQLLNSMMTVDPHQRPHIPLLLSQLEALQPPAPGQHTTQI
Chain of EPHA5 (human) (P54756 whole entry, looked up): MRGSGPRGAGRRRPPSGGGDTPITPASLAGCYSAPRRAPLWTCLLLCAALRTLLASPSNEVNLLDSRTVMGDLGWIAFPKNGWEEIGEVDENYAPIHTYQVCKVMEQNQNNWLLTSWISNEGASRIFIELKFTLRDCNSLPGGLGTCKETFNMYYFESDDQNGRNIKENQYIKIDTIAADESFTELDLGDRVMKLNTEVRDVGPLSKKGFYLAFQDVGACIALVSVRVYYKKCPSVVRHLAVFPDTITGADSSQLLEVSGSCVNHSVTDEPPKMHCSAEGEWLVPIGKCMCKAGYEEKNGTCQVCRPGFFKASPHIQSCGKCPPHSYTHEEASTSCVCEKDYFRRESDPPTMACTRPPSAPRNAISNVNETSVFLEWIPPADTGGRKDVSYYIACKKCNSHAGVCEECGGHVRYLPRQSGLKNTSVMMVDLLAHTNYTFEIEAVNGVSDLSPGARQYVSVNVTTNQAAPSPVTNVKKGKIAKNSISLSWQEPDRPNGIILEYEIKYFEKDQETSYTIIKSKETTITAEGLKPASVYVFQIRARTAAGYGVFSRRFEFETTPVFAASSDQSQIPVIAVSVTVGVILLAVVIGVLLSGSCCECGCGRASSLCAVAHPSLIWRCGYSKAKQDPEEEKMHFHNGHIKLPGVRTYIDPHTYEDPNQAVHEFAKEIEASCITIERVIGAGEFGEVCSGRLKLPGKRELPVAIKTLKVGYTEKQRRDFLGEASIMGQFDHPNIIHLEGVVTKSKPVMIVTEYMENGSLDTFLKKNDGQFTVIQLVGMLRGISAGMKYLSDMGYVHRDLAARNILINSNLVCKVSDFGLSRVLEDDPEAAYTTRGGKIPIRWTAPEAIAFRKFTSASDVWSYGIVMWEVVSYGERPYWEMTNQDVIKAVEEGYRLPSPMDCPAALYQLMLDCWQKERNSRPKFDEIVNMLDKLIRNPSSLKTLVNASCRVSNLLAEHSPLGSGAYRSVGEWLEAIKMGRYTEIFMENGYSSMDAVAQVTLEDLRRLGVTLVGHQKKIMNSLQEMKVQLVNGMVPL
Chain of CAMK2A (human) (Q9UQM7 whole entry, looked up): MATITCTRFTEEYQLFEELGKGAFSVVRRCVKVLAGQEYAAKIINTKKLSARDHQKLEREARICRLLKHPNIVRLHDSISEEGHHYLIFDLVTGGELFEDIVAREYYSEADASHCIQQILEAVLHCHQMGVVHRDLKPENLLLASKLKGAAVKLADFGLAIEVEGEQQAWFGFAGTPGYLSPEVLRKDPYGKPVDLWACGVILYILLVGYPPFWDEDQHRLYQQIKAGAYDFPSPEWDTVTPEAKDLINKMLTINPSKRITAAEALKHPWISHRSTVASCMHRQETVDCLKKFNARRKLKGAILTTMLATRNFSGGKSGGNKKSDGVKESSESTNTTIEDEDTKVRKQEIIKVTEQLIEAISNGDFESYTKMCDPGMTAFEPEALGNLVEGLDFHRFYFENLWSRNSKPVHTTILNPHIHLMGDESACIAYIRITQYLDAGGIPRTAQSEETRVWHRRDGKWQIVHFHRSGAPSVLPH
Chain of ROCK2 (human) (O75116 whole entry, looked up): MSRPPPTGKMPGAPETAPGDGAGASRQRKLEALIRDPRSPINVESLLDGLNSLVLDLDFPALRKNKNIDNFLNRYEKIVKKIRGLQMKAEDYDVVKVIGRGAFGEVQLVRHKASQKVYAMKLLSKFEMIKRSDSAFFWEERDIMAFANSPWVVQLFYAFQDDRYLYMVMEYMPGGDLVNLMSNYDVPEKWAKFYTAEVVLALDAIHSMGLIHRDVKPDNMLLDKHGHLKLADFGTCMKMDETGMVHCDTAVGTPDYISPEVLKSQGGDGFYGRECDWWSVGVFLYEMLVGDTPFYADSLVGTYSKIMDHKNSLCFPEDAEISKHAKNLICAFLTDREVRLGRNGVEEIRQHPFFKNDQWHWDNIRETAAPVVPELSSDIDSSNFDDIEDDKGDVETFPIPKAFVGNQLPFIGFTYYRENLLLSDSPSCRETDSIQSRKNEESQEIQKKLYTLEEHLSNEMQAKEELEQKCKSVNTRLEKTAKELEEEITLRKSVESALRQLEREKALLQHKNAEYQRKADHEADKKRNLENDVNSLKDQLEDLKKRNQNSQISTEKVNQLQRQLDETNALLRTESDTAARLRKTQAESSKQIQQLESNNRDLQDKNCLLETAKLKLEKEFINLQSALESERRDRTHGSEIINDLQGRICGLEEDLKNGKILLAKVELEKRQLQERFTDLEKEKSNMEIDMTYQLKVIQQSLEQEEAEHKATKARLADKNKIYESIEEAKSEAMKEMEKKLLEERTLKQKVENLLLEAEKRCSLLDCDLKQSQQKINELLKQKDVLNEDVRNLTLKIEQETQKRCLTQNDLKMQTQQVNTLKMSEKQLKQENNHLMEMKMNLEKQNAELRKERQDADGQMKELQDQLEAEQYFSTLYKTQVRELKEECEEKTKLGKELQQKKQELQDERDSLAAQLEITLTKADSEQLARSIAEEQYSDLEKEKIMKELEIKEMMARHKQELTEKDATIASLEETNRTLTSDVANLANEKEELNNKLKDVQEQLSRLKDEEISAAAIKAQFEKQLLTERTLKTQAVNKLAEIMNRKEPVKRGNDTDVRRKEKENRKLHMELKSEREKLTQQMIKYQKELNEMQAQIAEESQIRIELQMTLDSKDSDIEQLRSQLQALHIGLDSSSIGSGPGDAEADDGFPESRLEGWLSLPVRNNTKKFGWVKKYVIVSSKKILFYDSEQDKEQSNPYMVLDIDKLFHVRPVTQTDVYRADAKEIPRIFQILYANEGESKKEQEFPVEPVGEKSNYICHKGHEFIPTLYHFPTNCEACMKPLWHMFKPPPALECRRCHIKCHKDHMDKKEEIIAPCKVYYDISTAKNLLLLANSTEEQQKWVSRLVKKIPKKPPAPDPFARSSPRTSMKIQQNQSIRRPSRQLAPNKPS
Chain of SGK3 (human) (Q96BR1 whole entry, looked up): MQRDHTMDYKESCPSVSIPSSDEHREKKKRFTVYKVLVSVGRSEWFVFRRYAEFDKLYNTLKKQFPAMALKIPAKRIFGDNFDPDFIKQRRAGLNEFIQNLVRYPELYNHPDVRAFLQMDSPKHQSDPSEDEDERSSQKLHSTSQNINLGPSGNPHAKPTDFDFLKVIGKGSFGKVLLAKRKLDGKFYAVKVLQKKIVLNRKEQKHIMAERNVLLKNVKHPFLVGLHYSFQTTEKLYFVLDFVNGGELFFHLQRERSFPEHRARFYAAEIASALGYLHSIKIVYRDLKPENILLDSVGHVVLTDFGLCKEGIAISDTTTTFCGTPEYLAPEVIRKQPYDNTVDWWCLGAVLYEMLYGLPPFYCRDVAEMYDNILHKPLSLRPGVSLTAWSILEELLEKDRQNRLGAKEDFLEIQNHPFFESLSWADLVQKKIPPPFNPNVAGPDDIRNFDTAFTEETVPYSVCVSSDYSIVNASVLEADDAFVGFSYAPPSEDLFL

**Q.** Which residual activity (TEC (human)) does the source give for `O=c1c2ccccc2[nH]c(=S)n1CCN1CCC(=C(c2ccc(F)cc2)c2ccc(F)cc2)CC1` here?
**A.** Its residual activity is 110%.

**Q.** And the residual activity (RPS6KA5 KD2 (human))?
**A.** Its residual activity is 105%.

**Q.** And the residual activity (ROCK2 (human))?
**A.** Its residual activity is 98.8%.

**Q.** And the residual activity (INSRR (human))?
**A.** Its residual activity is 98.3%.

**Q.** What about the residual activity (JAK3 JH1 JH2 (human)) of the same compound?
**A.** The residual activity was 104%.

**Q.** And the residual activity (CAMK2A (human))?
**A.** The residual activity was 105%.

**Q.** What about the residual activity (PASK (human)) of the same compound?
**A.** The residual activity was 99%.

**Q.** And the residual activity (GRK6 (human))?
**A.** Its residual activity is 111%.

**Q.** And the residual activity (PRKD1 (human))?
**A.** The residual activity was 101%.

**Q.** And the residual activity (NEK9 (human))?
**A.** Its residual activity is 97%.

**Q.** And the residual activity (MARK3 (human))?
**A.** The residual activity was 107%.

**Q.** What about the residual activity (SGK2 (human)) of the same compound?
**A.** The residual activity was 99.1%.

**Q.** And the residual activity (FGFR1 (human))?
**A.** The residual activity was 105%.

**Q.** What about the residual activity (PRKACA (human)) of the same compound?
**A.** Its residual activity is 101%.

**Q.** What about the residual activity (MAPK14 (human)) of the same compound?
**A.** Its residual activity is 99%.

**Q.** What about the residual activity (WNK3 (human)) of the same compound?
**A.** Its residual activity is 107%.

**Q.** What about the residual activity (CAMK2G (human)) of the same compound?
**A.** The residual activity was 97.9%.

**Q.** And the residual activity (CSNK1D (human))?
**A.** The residual activity was 100%.

**Q.** What about the residual activity (MLTK (human)) of the same compound?
**A.** The residual activity was 98.6%.

**Q.** And the residual activity (CSF1R (human))?
**A.** Its residual activity is 102%.

**Q.** And the residual activity (MAPK10 (human))?
**A.** Its residual activity is 76.2%.

**Q.** And the residual activity (RPS6KA6 KD1 KD2 (human))?
**A.** Its residual activity is 101%.

**Q.** What about the residual activity (DYRK4 (human)) of the same compound?
**A.** The residual activity was 97.5%.

**Q.** What about the residual activity (PRKCA (human)) of the same compound?
**A.** The residual activity was 73.1%.

**Q.** What about the residual activity (HIPK1 (human)) of the same compound?
**A.** Its residual activity is 107%.

**Q.** What about the residual activity (STK11 (human)) of the same compound?
**A.** The residual activity was 107%.

**Q.** What about the residual activity (PDPK1 (human)) of the same compound?
**A.** The residual activity was 99.2%.

**Q.** And the residual activity (MAP3K14 (human))?
**A.** Its residual activity is 75.7%.

**Q.** And the residual activity (NEK3 (human))?
**A.** Its residual activity is 94%.

**Q.** What about the residual activity (PTK2B (human)) of the same compound?
**A.** Its residual activity is 98.5%.

**Q.** And the residual activity (ULK1 (human))?
**A.** Its residual activity is 98.1%.

**Q.** And the residual activity (SGK3 (human))?
**A.** The residual activity was 114%.

**Q.** And the residual activity (KDR (human))?
**A.** The residual activity was 93.1%.

**Q.** And the residual activity (NEK11 (human))?
**A.** Its residual activity is 94%.

**Q.** And the residual activity (MYLK (human))?
**A.** Its residual activity is 96.2%.

**Q.** And the residual activity (CDK6 CCND3 (human))?
**A.** The residual activity was 98.2%.

**Q.** And the residual activity (MAP3K2 (human))?
**A.** The residual activity was 99.6%.

**Q.** And the residual activity (CDK2 CCNE1 (human))?
**A.** The residual activity was 97.3%.

**Q.** What about the residual activity (EPHA5 (human)) of the same compound?
**A.** Its residual activity is 112%.

**Q.** What about the residual activity (STK16 (human)) of the same compound?
**A.** Its residual activity is 104%.

**Q.** What about the residual activity (MAPK11 (human)) of the same compound?
**A.** The residual activity was 99.3%.

**Q.** And the residual activity (PIM1 (human))?
**A.** The residual activity was 105%.

**Q.** Which residual activity (TEC (human)) does the source give for `O=C(O)c1ccc2c3c1cccc3c(=O)n1c3ccccc3nc21` here?
**A.** Its residual activity is 123%.

**Q.** What about the residual activity (RPS6KA5 KD2 (human)) of the same compound?
**A.** The residual activity was 104%.

**Q.** And the residual activity (ROCK2 (human))?
**A.** The residual activity was 99%.

**Q.** And the residual activity (INSRR (human))?
**A.** The residual activity was 101%.

**Q.** What about the residual activity (JAK3 JH1 JH2 (human)) of the same compound?
**A.** The residual activity was 46.9%.

**Q.** What about the residual activity (CAMK2A (human)) of the same compound?
**A.** The residual activity was 85.2%.

**Q.** What about the residual activity (PASK (human)) of the same compound?
**A.** The residual activity was 106%.

**Q.** And the residual activity (GRK6 (human))?
**A.** The residual activity was 91.4%.

**Q.** And the residual activity (PRKD1 (human))?
**A.** The residual activity was 86.2%.

**Q.** What about the residual activity (NEK9 (human)) of the same compound?
**A.** The residual activity was 94.1%.

**Q.** What about the residual activity (MARK3 (human)) of the same compound?
**A.** The residual activity was 82.6%.

**Q.** And the residual activity (SGK2 (human))?
**A.** Its residual activity is 103%.

**Q.** And the residual activity (FGFR1 (human))?
**A.** The residual activity was 84.7%.

**Q.** What about the residual activity (PRKACA (human)) of the same compound?
**A.** Its residual activity is 99.4%.

**Q.** And the residual activity (MAPK14 (human))?
**A.** Its residual activity is 99%.

**Q.** And the residual activity (WNK3 (human))?
**A.** The residual activity was 95.8%.

**Q.** What about the residual activity (CAMK2G (human)) of the same compound?
**A.** Its residual activity is 96.5%.

**Q.** What about the residual activity (CSNK1D (human)) of the same compound?
**A.** Its residual activity is 101%.

**Q.** What about the residual activity (MLTK (human)) of the same compound?
**A.** Its residual activity is 100%.

**Q.** What about the residual activity (CSF1R (human)) of the same compound?
**A.** The residual activity was 104%.

**Q.** What about the residual activity (MAPK10 (human)) of the same compound?
**A.** Its residual activity is 108%.

**Q.** And the residual activity (RPS6KA6 KD1 KD2 (human))?
**A.** Its residual activity is 101%.

**Q.** What about the residual activity (DYRK4 (human)) of the same compound?
**A.** The residual activity was 95.9%.

**Q.** What about the residual activity (PRKCA (human)) of the same compound?
**A.** Its residual activity is 101%.

**Q.** And the residual activity (HIPK1 (human))?
**A.** The residual activity was 104%.

**Q.** And the residual activity (STK11 (human))?
**A.** The residual activity was 96.6%.

**Q.** What about the residual activity (PDPK1 (human)) of the same compound?
**A.** The residual activity was 108%.

**Q.** And the residual activity (MAP3K14 (human))?
**A.** The residual activity was 94.8%.

**Q.** What about the residual activity (NEK3 (human)) of the same compound?
**A.** Its residual activity is 91.8%.

**Q.** And the residual activity (PTK2B (human))?
**A.** The residual activity was 69.2%.

**Q.** And the residual activity (ULK1 (human))?
**A.** Its residual activity is 83.5%.

**Q.** And the residual activity (SGK3 (human))?
**A.** The residual activity was 103%.

**Q.** And the residual activity (KDR (human))?
**A.** Its residual activity is 101%.

**Q.** And the residual activity (NEK11 (human))?
**A.** The residual activity was 83%.

**Q.** What about the residual activity (MYLK (human)) of the same compound?
**A.** Its residual activity is 89.8%.

**Q.** And the residual activity (CDK6 CCND3 (human))?
**A.** The residual activity was 105%.

**Q.** What about the residual activity (MAP3K2 (human)) of the same compound?
**A.** Its residual activity is 90.7%.

**Q.** What about the residual activity (CDK2 CCNE1 (human)) of the same compound?
**A.** Its residual activity is 90.9%.

**Q.** And the residual activity (EPHA5 (human))?
**A.** Its residual activity is 94.2%.

**Q.** And the residual activity (STK16 (human))?
**A.** The residual activity was 106%.

**Q.** What about the residual activity (MAPK11 (human)) of the same compound?
**A.** Its residual activity is 105%.

**Q.** What about the residual activity (PIM1 (human)) of the same compound?
**A.** Its residual activity is 59.5%.

— the kinase profiling compilation of Christmann-Franck et al. (2016)
